test system: RSV A2 strain; experiment: In vitro CPE (CytoPathic Effect) inhibition effect evaluation test, RSV type A; assay type: cell-based; details: human respiratory syncytial virus, HEp-2
Experimental: The test sample is diluted in advance to an appropriate concentration with DMSO, and 3-fold series of serial dilutions were prepared on a 384-well plate (0.32 μL/well). HEp-2 cells (CCL-23; ATCC) adjusted at appropriate number (2.4×10^5 cells/mL) in 2% FBS E-MEM (prepared by adding kanamycin and FBS to Eagle's Minimum Essential Medium; Invitrogen) were added at 12.5 μL/well to the 384-well plate previously aliquoted with the test samples. The RSV A2 strain was diluted to an appropriate concentration in a culture medium and added to the 384-well plate containing the test sample at 12.5 μL/well. The culture medium was added additionally to the 384-well plate, and the test was started with 50 μL/well. Control wells were prepared with only virus-free culture medium. The plate was incubated in a 5% CO2 incubator at 37° C. for 4 days, and the plate was then placed at room temperature for 30 minutes. CellTiter-Glo (registered trademark) 2.0 assay (Promega) was added at 15 μL/well, mixed for 30 seconds, and the plate was placed for approximately 1 hour. The luminescent signal was then measured by EnVision (PerkinElmer). The inhibitory effect of the test agents on RSV-induced CPE was calculated as 0% and 100% inhibition rate for each sample concentration based on the level of remaining viable cells by CellTiter-Glo (registered trademark) 2.0, with the EC50 value for each compound calculated by nonlinear regression as the concentration that inhibits RSV-induced CPE by 50%. In the case of evaluation against RSV type B, RSV B (Wash/18537 strain) was infected in the same manner as the type A, cultured for 5 days, and quantitated in the same manner as for the A2 strain.

Row | Compound | EC50 [µM]
1 | CN1CCC2(CC1)CN(c1ncc(C(=O)NC3(C(=O)O)CCCCC3)c(C(F)(F)F)n1)c1ccc(OCCC3CCOCC3)cc12 [Compound I-62] | < 0.01
2 | O=C(NC1(C(=O)O)CCCCC1)c1cnc(N2CC3(CCN(C4CCC4)CC3)c3cc(OCCC4CCOCC4)ccc32)nc1C(F)(F)F [Compound I-63] | < 0.01
3 | O=C(NC1(C(=O)O)CCCCC1)c1cnc(N2CC3(CCNCC3)c3cc(OCCC4CCOCC4)ccc32)nc1C(F)(F)F [Compound I-89] | 0.1 to 5
4 | O=C(NC1(c2nn[nH]n2)CCCCC1)c1cnc(N2CC3(CCOCC3)c3cc(OC4CCN(c5ncccn5)CC4)ccc32)nc1C(F)(F)F [Compound I-98] | < 0.01
5 | O=C(NC1(c2noc(=O)[nH]2)CCCCC1)c1cnc(N2CC3(CCOCC3)c3cc(OC4CCN(c5ncccn5)CC4)ccc32)nc1C(F)(F)F [Compound I-99] | < 0.01

same assay, conditions: human respiratory syncytial virus; inhibitory effect against RSV type A (RSV A2 strain), HEp-2 cells, CPE inhibition; read-out: EC50

Row | Compound | EC50 [µM]
6 | O=C(NC1(C(=O)O)CCCC1)c1cnc(N2CCc3cc(OC4CCN(c5ncccn5)CC4)ccc32)nc1C(F)(F)F [Compound I-48] | < 0.01
7 | O=C(NC1(C(=O)O)CCC(F)(F)CC1)c1cnc(N2CCc3cc(OC4CCN(c5ncccn5)CC4)ccc32)nc1C(F)(F)F [Compound I-49] | 0.01 to 0.1
8 | O=C(NC1(C(=O)O)CCCCC1)c1cnc(N2CCc3cc(OC4CCN(c5cccnc5)CC4)ccc32)nc1C(F)(F)F [Compound I-51] | 0.01 to 0.1
9 | CC1(C)CN(c2ncc(C(=O)NC3(C(=O)O)CCCCC3)c(C(F)(F)F)n2)c2ccc(OCCC3CCOCC3)cc21 [Compound I-54] | < 0.01
10 | CCc1nc(COc2ccc3c(c2)CCN3c2ncc(C(=O)NC3(C(=O)O)CCCCC3)c(C(F)(F)F)n2)cs1 [Compound I-59] | 0.01 to 0.1
11 | CC(=O)N1CCC(Oc2ccc3c(c2)CCN3c2ncc(C(=O)NC3(C(=O)O)CCCCC3)c(C(F)(F)F)n2)CC1 [Compound I-64] | 0.1 to 5
12 | O=C(NC1(C(=O)O)CCCCC1)c1cnc(N2CCc3cc(NC4CCN(c5ncccn5)CC4)ccc32)nc1C(F)(F)F [Compound I-67] | 0.01 to 0.1
13 | O=C(NC1(C(=O)O)CCCCC1)c1cnc(N2CCc3cc(C4=CCCN(Cc5ccccc5)C4)ccc32)nc1C(F)(F)F [Compound I-70] | 0.01 to 0.1
14 | O=C(NC1(C(=O)O)CCCCC1)c1cnc(N2CCc3cc(C4=CCCN(c5ncccn5)C4)ccc32)nc1C(F)(F)F [Compound I-71] | < 0.01
15 | COc1cccnc1N1CCC(Oc2ccc3c(c2)CCN3c2ncc(C(=O)NC3(C(=O)O)CCCCC3)c(C(F)(F)F)n2)CC1 [Compound I-77] | < 0.01
16 | COc1ccc(N2CCC(Oc3ccc4c(c3)CCN4c3ncc(C(=O)NC4(C(=O)O)CCCCC4)c(C(F)(F)F)n3)CC2)nc1 [Compound I-78] | < 0.01
17 | COc1ccnc(N2CCC(Oc3ccc4c(c3)CCN4c3ncc(C(=O)NC4(C(=O)O)CCCCC4)c(C(F)(F)F)n3)CC2)c1 [Compound I-79] | 0.01 to 0.1
18 | O=C(NC1(C(=O)O)CCCCC1)c1cnc(N2CC3(CCOCC3)c3cc(OCCN4CCOCC4)ccc32)nc1C(F)(F)F [Compound I-85] | 0.01 to 0.1
19 | COc1cccc(COc2ccc3c(n2)C2(CCOCC2)CN3c2ncc(C(=O)NC3(C(=O)O)CCCCC3)c(C(F)(F)F)n2)c1 [Compound I-103] | < 0.01
20 | O=C(NC1(C(=O)O)CCCCC1)c1cnc(N2CC3(CCOCC3)c3nc(OCCC4CCOCC4)ccc32)nc1C(F)(F)F [Compound I-106] | < 0.01
21 | CCNC(=O)N1CCC(Oc2ccc3c(c2)CCN3c2ncc(C(=O)NC3(C(=O)O)CCCCC3)c(C(F)(F)F)n2)CC1 [Compound I-112] | 0.01 to 0.1
22 | O=C(NC1(C(=O)O)C2CC3CC(C2)CC1C3)c1cnc(N2CC3(CCOCC3)c3cc(CCCC4CCOCC4)ccc32)nc1C(F)(F)F (centres unmarked) [Compound I-114] | < 0.01
23 | Cn1cc(-c2ncc(C(=O)NC3(C(=O)O)CCCCC3)c(C(F)(F)F)n2)c2ccc(OCCC3CCOCC3)cc21 [Compound I-117] | 0.01 to 0.1
24 | COc1ccc2c(c1)CCN2c1ccc(C(=O)NC2(C(=O)O)C3CC4CC(C3)CC2C4)c(C(F)(F)F)c1 (centres unmarked) [Compound I-124] | 0.01 to 0.1

Further lines, results first:

Row | EC50 [µM] | Compound
25 | 0.01 to 0.1 | O=C(NC1(C(=O)O)CCCCC1)c1cnc(N2CCc3cc(OCCNc4ncccn4)ccc32)nc1C(F)(F)F [Compound I-52]
26 | < 0.01 | O=C(NC1(C(=O)O)CCCCC1)c1cnc(N2CC3(CCCCC3)c3cc(OCCC4CCOCC4)ccc32)nc1C(F)(F)F [Compound I-55]
27 | < 0.01 | O=C(NC1(C(=O)O)CCCCC1)c1cnc(N2CC3(CCN(C(=O)OCc4ccccc4)CC3)c3cc(OCCC4CCOCC4)ccc32)nc1C(F)(F)F [Compound I-61]
28 | 0.01 to 0.1 | CC(C)C(=O)N1CCC(Oc2ccc3c(c2)CCN3c2ncc(C(=O)NC3(C(=O)O)CCCCC3)c(C(F)(F)F)n2)CC1 [Compound I-65]
29 | 0.1 to 5 | O=C(NC1(C(=O)O)CCCCC1)c1cnc(N2CCc3cc(OC4CCN(c5nccc(=O)[nH]5)CC4)ccc32)nc1C(F)(F)F [Compound I-69]
30 | < 0.01 | O=C(NC1(C(=O)O)CCCCC1)c1cnc(N2CCc3cc(O[C@@H]4CCN(c5ncccn5)C4)ccc32)nc1C(F)(F)F [Compound I-74]
31 | 0.01 to 0.1 | Cc1cnn(CCOc2ccc3c(c2)CCN3c2ncc(C(=O)NC3(C(=O)O)CCCCC3)c(C(F)(F)F)n2)c1 [Compound I-75]
32 | 0.01 to 0.1 | COc1ccc2c(c1)C1(CCOCC1)CN2c1ncc(C(=O)NC2(C(=O)O)CCCCC2)c(C(F)(F)F)n1 [Compound I-76]
33 | 0.01 to 0.1 | O=C(NC1(C(=O)O)CCCCC1)c1cnc(N2CCc3cc(OC4CCN(c5ccncc5)CC4)ccc32)nc1C(F)(F)F [Compound I-84]
34 | 0.1 to 5 | COc1ccc2c(n1)C1(CCOCC1)CN2c1ncc(C(=O)NC2(C(=O)O)CCCCC2)c(C(F)(F)F)n1 [Compound I-90]
35 | < 0.01 | N#CC1(NC(=O)c2cnc(N3CC4(CCOCC4)c4cc(OC5CCN(c6ncccn6)CC5)ccc43)nc2C(F)(F)F)CCCCC1 [Compound I-94]
36 | < 0.01 | O=C(NC1(C(=O)O)CCCCC1)c1cnc(N2CC3(CCOCC3)c3nc(OC4CCN(c5ncccn5)CC4)ccc32)nc1C(F)(F)F [Compound I-108]
37 | < 0.01 | O=C(NC1(C(=O)O)C2CC3CC(C2)CC1C3)c1cnc(N2CC3(CCOCC3)c3cc(C4CC4)ccc32)nc1C(F)(F)F (centres unmarked) [Compound I-115]
38 | < 0.01 | Cn1cc(-c2ncc(C(=O)NC3(C(=O)O)C4CC5CC(C4)CC3C5)c(C(F)(F)F)n2)c2ccc(OCCC3CCOCC3)cc21 (centres unmarked) [Compound I-116]
39 | < 0.01 | O=C(NC1(C(=O)O)C2CC3CC(C2)CC1C3)c1cnc(N2CC3(CCOCC3)c3cc(CC4CCN(c5ncccn5)CC4)ccc32)nc1C(F)(F)F (centres unmarked) [Compound I-119]
40 | < 0.01 | COc1ccc2c(n1)C1(CCOCC1)CN2c1ccc(C(=O)NC2(C(=O)O)C3CC4CC(C3)CC2C4)c(C(F)(F)F)n1 (centres unmarked) [Compound I-120]
41 | < 0.01 | COc1ccc2c(c1)C1(CCOCC1)CN2c1ccc(C(=O)NC2(C(=O)O)C3CC4CC(C3)CC2C4)c(C(F)(F)F)n1 (centres unmarked) [Compound I-121]
42 | < 0.01 | Cc1ccc2c(c1)C1(CCOCC1)CN2c1ccc(C(=O)NC2(C(=O)O)C3CC4CC(C3)CC2C4)c(C(F)(F)F)n1 (centres unmarked) [Compound I-122]
43 | < 0.01 | O=C(NC1(C(=O)O)C2CC3CC(C2)CC1C3)c1ccc(N2CCc3cc(OCCC4CCOCC4)ccc32)cc1C(F)(F)F (centres unmarked) [Compound I-123]
44 | 0.01 to 0.1 | O=C(NC1(C(=O)O)C2CC3CC(C2)CC1C3)c1ccc(N2CCc3cc(OCCC4CCOCC4)cnc32)cc1C(F)(F)F (centres unmarked) [Compound I-125]

same assay, conditions: inhibitory effect against RSV type A (RSV A2 strain), HEp-2 cells, CPE inhibition; read-out: EC50

Row | Compound | EC50 [µM]
45 | O=C(NC1(C(=O)O)C2CC3CC(C2)CC1C3)c1ccc(N2CC3(CCOCC3)c3cc(OCCC4CCOCC4)ccc32)nc1C(F)(F)F (centres unmarked) [Compound I-101] | < 0.01
46 | O=C(NC1(C(=O)O)C2CC3CC(C2)CC1C3)c1ccc(N2CC3(CCOCC3)c3cc(OC4CCN(c5ncccn5)CC4)ccc32)nc1C(F)(F)F (centres unmarked) [Compound I-102] | < 0.01
47 | COc1cccc(COc2ccc3c(n2)C2(CCOCC2)CN3c2ncc(C(=O)NC3(C(=O)O)C4CC5CC(C4)CC3C5)c(C(F)(F)F)n2)c1 (centres unmarked) [Compound I-104] | < 0.01
48 | O=C(NC1(C(=O)O)C2CC3CC(C2)CC1C3)c1cnc(N2CC3(CCOCC3)c3nc(OCCC4CCOCC4)ccc32)nc1C(F)(F)F (centres unmarked) [Compound I-105] | < 0.01
49 | O=C(NC1(C(=O)O)C2CC3CC(C2)CC1C3)c1cnc(N2CC3(CCOCC3)c3nc(OC4CCN(c5ncccn5)CC4)ccc32)nc1C(F)(F)F (centres unmarked) [Compound I-107] | < 0.01
50 | O=C(NC1(C(=O)O)C2CC3CC(C2)CC1C3)c1cnc(N2CC3(CCOCC3)c3cc(/C=C/CC4CCOCC4)ccc32)nc1C(F)(F)F (centres unmarked) [Compound I-110] | < 0.01

Further lines, results first:

Row | EC50 [µM] | Compound
51 | 0.01 to 0.1 | COc1ccc2c(c1)CCN2c1ncc(C(=O)NC2(C(=O)O)C3CC4CC(C3)CC2C4)c(C(F)(F)F)n1 (centres unmarked) [Compound I-68]
52 | < 0.01 | CNc1nc(N2CCc3cc(OCCC4CCOCC4)ccc32)nc(C(F)(F)F)c1C(=O)NC1(C(=O)O)C2CC3CC(C2)CC1C3 (centres unmarked) [Compound I-95]
53 | < 0.01 | O=C(NC1(C(=O)O)C2CC3CC(C2)CC1C3)c1cnc(N2CC3(CCOCC3)c3cc(C=C4CCN(C(=O)OCc5ccccc5)CC4)ccc32)nc1C(F)(F)F (centres unmarked) [Compound I-111]
